Measurements as given in article PMC9032516, “Targeting Zika Virus with New Brain- and Placenta-Crossing Peptide–Porphyrin Conjugates” (Pharmaceutics, 2022).
Structures can show the parent of a compound that is named as a salt. Where two headings read alike, the source gives them in different places. One block for each compound: values may come before it. No end group written: not given here.

How the values were obtained:
HIV = tested on: HIV; design: method as in 2 sources, one per row (each row's own in cited_ref): ref [24] as printed in Table 2, ref [2] in supplement ||| ref 23 = [23]; PMID 34033716; doi:10.1021/acs.bioconjchem.1c00123; 23. Mendonça D.A. Bakker M. Cruz-Oliveira C. Neves V. Jiménez M.A. Defaus S. Cavaco M. Veiga A.S. Cadima-Couto I. Castanho M.A.R.B. Penetrating the Blood-Brain Barrier with New Peptide–Porphyrin Conju; details: in vitro; values marked a; ref [24] as printed in Table 2, ref [2] in supplement; cited from earlier work
ZIKV^BR = test: ZIKV inactivation assay (plaque assay on Vero cells); type: cell-based, Zika virus; details: 10^5 PFU ZIKV^BR pre-treated 1 h at 37 °C in the dark with 0.01–50 µM, titrated by plaque assay on Vero cells, three independent replicates
Method: After infection, cells were cultured for 7 days.
Three independent replicates were performed.

[1] = tested on: HBEC-5i human brain endothelia monolayer (in vitro BBB model); test: In vitro BBB integrity assay (FD4 permeability after incubation); type: cell-based
Method: After 24 h incubation with PPCs, cells were washed with PBS and DMEM:F12 medium without phenol red. […] Three independent replicates were performed.

Serum stability = type: in vitro ADME; details: human serum diluted 1:1 (v/v) with HEPES buffer, 0.05 mM in 1:1 human serum / HEPES buffer (10 mM, NaCl 150 mM, pH 7.8), 37 °C, methanol precipitation, three independent replicates, read-out: t1/2 in human serum (converted)

IC50 (ZIKV^BR): > 50 µM
Compound: CCC1=C(C)c2cc3[nH]c(cc4[nH]c(cc5nc(cc1n2)C(C)=C5CC)c(C)c4CCC(=O)O)c(CCC(=O)O)c3C [MP, Mesoporphyrin IX dihydrochloride]
IC50 (HIV): > 50 µM

FD4 permeability post-translocation (Basolateral Content), BBB [1]: 29.6%
Compound: O=C(O)CN(CCOCCOCCN(CC(=O)O)CC(=O)O)CC(=O)O [EGTA]

Compound: VQQLTKRFSL-NH2 [P1]
half-life at 0.05 mM (Serum stability; HPLC): 0.733 h

FD4 permeability post-translocation (Basolateral Content), BBB ([1]; HBEC-5i monolayer after 24 h incubation with 10 µM compound, 4 kDa FITC-dextran apical, 2 h, fluorescence, three independent replicates, black bars Figure 1B, control (cells only) 10.3%): 24.7%
increase in FD4 permeability over control values, BBB ([1]; HBEC-5i monolayer, 24.7% versus control 10.3%): 2.5 fold
Compound: C=CC1=C(C)c2cc3[nH]c(cc4nc(cc5[nH]c(cc1n2)c(C)c5CCC(=O)O)C(CCC(=O)O)=C4C)c(C)c3C=C [PP, protoporphyrin IX]
IC50 (HIV): > 50 µM

Compound: SGTQEEY-NH2 [P5, SGTQEEY-amide]
half-life at 0.05 mM (Serum stability; over 24 h, HPLC peak area (401 nm for porphyrins)): 2.2 h
